Results: publication PMC11337205, “Unraveling Interspecies Differences in the Phase I Hepatic Metabolism of Alternariol and Alternariol Monomethyl Ether: Closing Data Gaps for a Comprehensive Risk Assessment” (Chemical Research in Toxicology, 2024)

How the values were obtained:
esophageal cells = tested on: esophageal cells; parameters: method as in PMID 27422292; conditions: cited from earlier work
[1] = Pattern of oxidative metabolites in porcine LMs by HR-MS; type: in vitro ADME, pig; conditions: for Relative peak area of oxidative metabolite: porcine LMs, normalized to the sum of measured peak areas
Method: (§1) The kinetics of the phase I metabolism of AOH and AME was investigated by incubating human, rat (both 1 mg protein/mL), and porcine LMs (2 mg protein/mL) with 1, 10, 20, 50, and 100 μM AOH or 1, 10, 20, and 50 μM AME based on the protocol by Al-Subeihi et al.[34] The incubation solution contained a final concentration of 3 mM NADPH and 1 mM ascorbic acid in 200 mM Tris–HCl (pH 7.4). After preincubation (37 °C, 1 min, mixing at 250–300 rpm), the toxin stock was added in a 1:100 dilution, resulting in a total DMSO content of 1% and the desired toxin concentration. DMSO was selected for this assay because it is the least inhibitory of the solvents studied by Busby et al. on CYP1A1,[35] the primary enzyme involved in the hydroxylation of AOH and AME.[26] The well-established solubility of the test compounds in DMSO and DMSO-containing aqueous buffers facilitated laboratory work and ensured consistency with existing literature, thereby improving the comparability of results across studies, including those of Pfeiffer and colleagues.[25] In a preliminary investigation, incubation times of 5 and 10 min were chosen because they fall within the linear range of the transformation rate–time relationship, thereby ensuring initial rate conditions (Figure S1). When the selected incubation time (0–10 min) passed, one part of the sample was pipetted into two parts of ice-cold extraction solvent (acetonitrile–methanol, 1:1, v/v) for reaction termination. Subsequently, the samples were placed into the freezer (−20 °C) for at least an hour, centrifuged (15 min, 18,000g, 4 °C), and further diluted in methanol–water (3:7, v/v) prior to LC–MS measurements. In the solvent control, the toxin was substituted with DMSO in the incubation solution. Control incubations were performed without the cofactor NADPH or with heat-inactivated microsomes (98 °C, 10 min, mixing at 300 rpm).
Pooled high-resolution MS (HR-MS) samples were analyzed on a Vanquish UHPLC system (Thermo Fisher Scientific, Waltham, MA, USA) connected to a dual-pressure linear trap-quadrupole Orbitrap mass analyzer (Velos ETD, Thermo Fisher Scientific, Waltham, MA, USA). The heated ESI interface (source heater temperature: 400 °C) was operated in both positive and negative modes. The mobile and stationary phases were the same as those for the targeted analysis. The column compartment temperature was kept at 40 °C. A multistep gradient was applied at a flow rate of 0.4 mL/min and started with rinsing the column for 1 min at 10% eluent B. Then, the organic content was linearly raised to 100% until the 11th minute. Subsequently, the column was purged with 100% eluent B for two additional minutes. Finally, the initial eluent composition was reset between minutes 13 and 13.5, followed by a 2 min re-equilibration under these conditions, resulting in a total run time of 15.5 min. Data acquisition and evaluation were performed with the software Skyline (v. 21.1.0.146, MacCoss Lab, Department of Genome Sciences, University of Washington, Seattle, WA, USA), XCalibur (v. 2.2SP1.48), and Chromeleon (v. 7.2.6.; both Thermo Fisher Scientific, Waltham, MA, USA).
As no analytical standards are currently available for the hydroxy (OH) metabolites of AOH and AME, an Alternaria reference mixture containing 4-OH-AOH and 4-OH-AME was used to enable associating peaks with their respective phase I metabolites.

[2] = Phase I metabolism kinetics (parent toxin loss) in NADPH-fortified rat liver microsomes, LC-MS/MS; type: in vitro ADME, Sprague–Dawley rat; conditions: for microsomal CLint: male, Sprague-Dawley, rat, liver microsomes, pH 7.4, rat LMs, read-out: CLint (intrinsic clearance); for Concentration decrease: rat LMs
Method: (§2) Pooled human LMs and pooled Sprague–Dawley rat hepatic microsomes, both originating from male donors, were purchased from Sigma-Aldrich (St. Louis, MO, USA) and Gibco, Thermo Fisher Scientific (Waltham, MA, USA), respectively. Porcine LMs were prepared according to an in-house-developed protocol based on the publication of Knights et al.[32] The liver of an approximately four-month-old female “Large White” (or “German Edelschwein”) pig was obtained from a local slaughterhouse. After slaughtering, the liver was placed on ice for about an hour, kept in ice-cold 50 mM tris(hydroxymethyl)aminomethane hydrochloride (Tris–HCl) (pH 7.4) for an additional hour while being transported, and processed immediately.
as §1
(§3) The quantification of selected analytes using external calibration (MS parameters listed in Supporting Information Table S1) was conducted on a high-performance liquid chromatographic system (Dionex UltiMate 3000 UHPLC, Dionex Softron GmbH, Germering, Germany) coupled to a triple quadrupole mass spectrometer (TSQ Vantage, Thermo Fisher Scientific, Waltham, MA, USA), equipped with a heated electrospray ionization (ESI) interface. The applied analytical method is based on Puntscher et al.[28],[36] with slight modifications, which are specified below.
(§4) In brief, the Ascentis Express C18 column (10 cm × 2.1 mm, 2.7 μm, Supelco, Munich, DE), equipped with the Phenomenex SecurityGuard (C18 Cartridges, 4 × 2.0 mm ID, Phenomenex Ltd. Deutschland, Aschaffenburg, Germany), served as the stationary phase. Eluent A was aqueous ammonium acetate (5 mM, pH adjusted to 8.6 with a 25% ammonia solution), and eluent B was methanol. During the first minute, the column was kept at 30% eluent B. Subsequently, the eluent B content was linearly raised to 100% within 6 min. Thereafter, the column was washed with 100% eluent B for 1.5 min. Lastly, the column was re-equilibrated at the initial conditions, reaching an overall run time of 10 min. The autosampler compartment was kept at 10 °C, while the column oven temperature was maintained at 30 °C. […]

[3] = Phase I metabolism kinetics (parent toxin loss) in NADPH-fortified porcine liver microsomes, LC-MS/MS; type: in vitro ADME, pig; conditions: for microsomal CLint: female, Large White, pig, liver microsomes, pH 7.4, porcine LMs, read-out: CLint (intrinsic clearance); for Concentration decrease: porcine LMs
Method: as §2, §1, §3, §4

[4] = oral administration, rats; cited from earlier work
[5] = Phase I metabolism kinetics (parent toxin loss) in NADPH-fortified human liver microsomes, LC-MS/MS; type: in vitro ADME; conditions: for microsomal CLint: human, pH 7.4, human LMs, read-out: CLint (intrinsic clearance)
Method: as §2, §1, §3, §4

[6] = Caco-2 cell monolayers; cited from earlier work
[7] = Pattern of oxidative metabolites in human LMs by HR-MS; type: in vitro ADME; conditions: human LMs incubated with AME
Method: as §1
Pooled high-resolution MS (HR-MS) samples were analyzed on a Vanquish UHPLC system (Thermo Fisher Scientific, Waltham, MA, USA) connected to a dual-pressure linear trap-quadrupole Orbitrap mass analyzer (Velos ETD, Thermo Fisher Scientific, Waltham, MA, USA). The heated ESI interface (source heater temperature: 400 °C) was operated in both positive and negative modes. The mobile and stationary phases were the same as those for the targeted analysis. The column compartment temperature was kept at 40 °C. A multistep gradient was applied at a flow rate of 0.4 mL/min and started with rinsing the column for 1 min at 10% eluent B. Then, the organic content was linearly raised to 100% until the 11th minute. Subsequently, the column was purged with 100% eluent B for two additional minutes. […]

[8] = Pattern of oxidative metabolites in rat LMs by HR-MS; type: in vitro ADME, Sprague–Dawley rat; conditions: rat LMs incubated with AME
Method: The kinetics of the phase I metabolism of AOH and AME was investigated by incubating human, rat (both 1 mg protein/mL), and porcine LMs (2 mg protein/mL) with 1, 10, 20, 50, and 100 μM AOH or 1, 10, 20, and 50 μM AME based on the protocol by Al-Subeihi et al.[34] The incubation solution contained a final concentration of 3 mM NADPH and 1 mM ascorbic acid in 200 mM Tris–HCl (pH 7.4). After preincubation (37 °C, 1 min, mixing at 250–300 rpm), the toxin stock was added in a 1:100 dilution, resulting in a total DMSO content of 1% and the desired toxin concentration. DMSO was selected for this assay because it is the least inhibitory of the solvents studied by Busby et al. on CYP1A1,[35] the primary enzyme involved in the hydroxylation of AOH and AME.[26] The well-established solubility of the test compounds in DMSO and DMSO-containing aqueous buffers facilitated laboratory work and ensured consistency with existing literature, thereby improving the comparability of results across studies, including those of Pfeiffer and colleagues.[25] […]
Pooled high-resolution MS (HR-MS) samples were analyzed on a Vanquish UHPLC system (Thermo Fisher Scientific, Waltham, MA, USA) connected to a dual-pressure linear trap-quadrupole Orbitrap mass analyzer (Velos ETD, Thermo Fisher Scientific, Waltham, MA, USA). […]

[9] = Michaelis–Menten model, ratio Vmax/Km
[10] = linear regression, lower concentration range
[11] = 10 min incubation with 10 μM AME

**Q.** With `Cc1cc(O)c(O)c2oc(=O)c3c(O)cc(O)cc3c12` [4-OH-AOH] as the compound, how does the “genotoxic effects compared with parent compound” value (esophageal cells) read?
**A.** The value was “less pronounced genotoxic effects”.

**Q.** What about the “relative abundance among phase I metabolites (in words)” value ([1]; porcine LMs incubated with AOH) of the same compound?
**A.** Its value is “primary oxidative metabolite”.

**Q.** And the “Relative peak area of oxidative metabolite” value (“Relative peak area” below) ([1]; 10 min incubation with 10 μM AOH)?
**A.** The value was 50%.

**Q.** Which results are given for `COc1cc(O)c2c(=O)oc3cc(O)cc(C)c3c2c1` [AME, alternariol 9-O-monomethyl ether]?
**A.** microsomal CLint [2, 9]: 45.2 µL/min/mg; microsomal CLint [2, 10]: 46.2 µL/min/mg; Concentration decrease ([2]; 1 µM toxin, 5 min): 28%; Concentration decrease ([2]; 1 µM toxin, 10 min): 43%; Concentration decrease ([2]; 10 µM toxin, 5 min): 24%; Concentration decrease ([2]; 10 µM toxin, 10 min): 48%; Concentration decrease ([2]; 20 µM toxin, 5 min): 20%; Concentration decrease ([2]; 20 µM toxin, 10 min): 48%; Concentration decrease ([2]; 50 µM toxin, 5 min): 17%; Concentration decrease ([2]; 50 µM toxin, 10 min): 48%; microsomal CLint [3, 9]: 19.5 µL/min/mg; microsomal CLint [3, 10]: 19 µL/min/mg; Concentration decrease ([3]; 1 µM toxin, 5 min): 16%; Concentration decrease ([3]; 1 µM toxin, 10 min): 38%; Concentration decrease ([3]; 10 µM toxin, 5 min): 13%; Concentration decrease ([3]; 10 µM toxin, 10 min): 24%; Concentration decrease ([3]; 20 µM toxin, 5 min): 19%; Concentration decrease ([3]; 20 µM toxin, 10 min): 30%; Concentration decrease ([3]; 50 µM toxin, 5 min): 20%; Concentration decrease ([3]; 50 µM toxin, 10 min): 27%; absorbed fraction [4]: less than 10%; Concentration decrease ([5]; human LMs, 1 µM toxin, 5 min): 35%; Concentration decrease ([5]; human LMs, 1 µM toxin, 10 min): 59%; Concentration decrease ([5]; human LMs, 10 µM toxin, 5 min): 26%; Concentration decrease ([5]; human LMs, 10 µM toxin, 10 min): 19%; Concentration decrease ([5]; human LMs, 20 µM toxin, 5 min): 8%; Concentration decrease ([5]; human LMs, 20 µM toxin, 10 min): 26%; Concentration decrease ([5]; human LMs, 50 µM toxin, 5 min): 2%; Concentration decrease ([5]; human LMs, 50 µM toxin, 10 min): 47%; Vmax (maximum transformation rate) ([5]; human LMs, within 10 min, Michaelis–Menten model): 772 pmol/mg/min; microsomal CLint ([5]; male, liver microsomes, Michaelis–Menten model, ratio Vmax/Km): 26.3 µL/min/mg; microsomal CLint ([5]; male, liver microsomes, linear regression, lower concentration range): 15.8 µL/min/mg; Km ([5]; male, liver microsomes, pH 7.4, human LMs 1 mg protein/mL, NADPH, within 10 min, Michaelis–Menten model, read-out: Km (Michaelis constant)): 29.4 µM; intestinal absorption [6]: limited intestinal absorption

**Q.** With `COc1cc(O)c2c(=O)oc3cc(O)c(O)c(C)c3c2c1` [2-OH-AME] as the compound, how does the “relative abundance among phase I metabolites (in words)” value [7] read?
**A.** The value was “most abundant”.

**Q.** What about the “relative abundance among phase I metabolites (in words)” value ([1]; porcine LMs incubated with AME) of the same compound?
**A.** The value was “main metabolites”.

**Q.** And the “Relative peak area” value [1, 11]?
**A.** The value was 30%.

**Q.** Which results are given for `COc1cc2c(c(O)c1O)c(=O)oc1cc(O)cc(C)c12` [8-OH-AME]?
**A.** relative abundance among phase I metabolites (in words) [8]: main metabolites; relative abundance among phase I metabolites (in words) [7]: small amounts

**Q.** For `Cc1cc(O)cc2oc(=O)c3c(O)c(O)c(O)cc3c12` [8-OH-AOH], which “relative abundance among phase I metabolites (in words)” value ([1]; porcine LMs incubated with AOH) is on record?
**A.** The value was “small amounts”.

**Q.** For `COc1cc(O)c2c(=O)oc3c(O)c(O)cc(C)c3c2c1` [4-OH-AME], which “genotoxic effects compared with parent compound” value (esophageal cells) is on record?
**A.** Its value is “less pronounced genotoxic effects”.

**Q.** What about the “relative abundance among phase I metabolites (in words)” value [7] of the same compound?
**A.** Its value is “most abundant”.

**Q.** What about the “Relative peak area” value [1, 11] of the same compound?
**A.** Its value is “less than 20%”.
